In patent publication US8431593B2, “Heteroaryl amide derivatives” (H. Lundbeck A/S, priority 2006, dated 2013) one finds IC50 data, which are given here for 29 molecules.

The experiment addresses T1, P2X7 receptor (Homo sapiens, UniProt Q99572).
T1 construct: host or cells: SH-SY5Y
T1 sequence (Q99572 1-595): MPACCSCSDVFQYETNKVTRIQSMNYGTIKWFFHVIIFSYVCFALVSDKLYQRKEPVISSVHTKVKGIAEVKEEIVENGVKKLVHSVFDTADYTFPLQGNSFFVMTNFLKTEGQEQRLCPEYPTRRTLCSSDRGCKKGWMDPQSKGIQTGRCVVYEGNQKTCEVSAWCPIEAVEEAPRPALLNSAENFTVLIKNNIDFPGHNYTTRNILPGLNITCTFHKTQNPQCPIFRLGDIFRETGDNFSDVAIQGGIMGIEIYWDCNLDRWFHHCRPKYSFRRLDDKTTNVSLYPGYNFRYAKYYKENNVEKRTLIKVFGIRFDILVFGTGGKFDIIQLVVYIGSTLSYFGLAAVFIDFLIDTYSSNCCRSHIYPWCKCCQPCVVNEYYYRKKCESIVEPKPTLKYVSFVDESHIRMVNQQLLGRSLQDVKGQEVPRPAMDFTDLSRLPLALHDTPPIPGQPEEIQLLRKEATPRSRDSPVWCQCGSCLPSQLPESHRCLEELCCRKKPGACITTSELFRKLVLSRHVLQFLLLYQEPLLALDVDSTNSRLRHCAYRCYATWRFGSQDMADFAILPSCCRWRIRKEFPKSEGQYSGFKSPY
Kind of experiment: P2X7 calcium mobilization assay, high throughput, antagonist activity (Example 4A). The settings on record: 50% decrease in the fluorescence response of cells exposed to 80 μM of 2′(3′)-O-(4-benzoyl-benzoyl)adenosine 5′-triphosphate; Example 4A; read-out: IC50. It counts as cell-based. Summed up: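 Dye-loaded cells (100,000/well, seeded previous day) are pre-exposed to compound for an hour at room temperature. Fluorescence maxima are baseline-corrected against no-agonist wells and compared with the averaged agonist-well maximum.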
(In general: A change in cytosolic calcium serves as a functional read-out for many receptors and channels.)

As for `N[C@@H]1CCCN(C(=O)c2cn3c(C(=O)NCC45CC6CC(CC(C6)C4)C5)cccc3n2)C1` [Compound 724, N-(adamantan-1-ylmethyl)-2-{[(3R)-3-aminopiperidin-1-yl]carbonyl}imidazo[1,2-a]pyridine-5-carboxamide], the IC50 (usually the concentration that gives 50% inhibition) is under 2000 nM.
Consider `N[C@@H]1CCN(C(=O)c2cn3c(NC(=O)CC45CC6CC(CC(C6)C4)C5)cccc3n2)C1` [Compound 725, 2-adamantan-1-yl-N-(2-{[(3R)-3-aminopyrrolidin-1-yl]carbonyl}imidazo[1,2-a]pyridin-5-yl)acetamide], for which the IC50 was under 2000 nM.
Take `O=C(NCC12CC3CC(CC(C3)C1)C2)c1cccc2nc(CC(=O)N3CC[C@@H](NCCO)C3)cn12` [Compound 726, N-(adamantan-1-ylmethyl)-2-(2-{(3R)-3-[(2-hydroxyethyl)amino]pyrrolidin-1-yl}-2-oxoethyl) imidazo[1,2-a]pyridine-5-carboxamide]: the half-inhibitory concentration (IC50) is under 2000 nM.
Regarding `O=C(NCC12CC3CC(CC(C3)C1)C2)c1cccc2nc(Cn3cnnn3)cn12` [Compound 727, N-(adamantan-1-ylmethyl)-2-(1H-tetrazol-1-ylmethyl) imidazo[1,2-a]pyridine-5-carboxamide], the IC50 was under 2000 nM.
The value for `CCOC(=O)C(Cc1cn2c(C(=O)NCC34CC5CC(CC(C5)C3)C4)cccc2n1)C(=O)OC(C)(C)C` (centres unmarked) [Compound 728, tert-butyl ethyl ({5-[(adamantan-1-ylmethyl)carbamoyl]imidazo[1,2-a]pyridin-2-yl}methyl)malonate] was under 2000 nM; that for `CC(C)CC(CNC(=O)c1cccc2nc(Cn3ccccc3=O)cn12)c1cccnc1` (centres unmarked) [Compound 729, N-(4-methyl-2-pyridin-3-ylpentyl)-2-[(2-oxopyridin-1(2H)-yl)methyl] imidazo[1,2-a]pyridine-5-carboxamide] was under 2000 nM.
The value for `O=C(NCC12CC3CC(CC(C3)C1)C2)c1cccc2nc(C(Cc3cccnc3)C(=O)O)cn12` (centres unmarked) [Compound 730, 2-{5-[(adamantan-1-ylmethyl)carbamoyl]imidazo[1,2-a]pyridin-2-yl}-3-pyridin-3-ylpropanoic acid] was under 2000 nM; that for `CC(C)(Cc1cn2c(C(=O)NCC34CC5CC(CC(C5)C3)C4)cccc2n1)C(=O)O` [Compound 731, 3-{5-[(adamantan-1-ylmethyl)carbamoyl]imidazo[1,2-a]pyridin-2-yl}-2,2-dimethylpropanoic acid] was under 2000 nM; that for `O=C(NCC12CC3CC(CC(C3)C1)C2)c1cccc2nc(C(Cc3ccccn3)C(=O)O)cn12` (centres unmarked) [Compound 732, 2-{5-[(adamantan-1-ylmethyl)carbamoyl]imidazo[1,2-a]pyridin-2-yl}-3-pyridin-2-ylpropanoic acid] was under 2000 nM.
The value for `O=C(NCC12CC3CC(CC(C3)C1)C2)c1cccc2nc(CC3(C(=O)O)SCCS3)cn12` [Compound 733, 2-({5-[(adamantan-1-ylmethyl)carbamoyl]imidazo[1,2-a]pyridin-2-yl}methyl)-1,3-dithiolane-2-carboxylic acid] was under 2000 nM; that for `O=C(NCC12CC3CC(CC(C3)C1)C2)c1cccc2nc(C(Cc3ccncc3)C(=O)O)cn12` (centres unmarked) [Compound 734, 2-{5-[(adamantan-1-ylmethyl)carbamoyl]imidazo[1,2-a]pyridin-2-yl}-3-pyridia-4-ylpropanoic acid] was under 2000 nM; that for `CCOC(=O)C(Cc1ccncc1)c1cn2c(C(=O)NCC34CC5CC(CC(C5)C3)C4)cccc2n1` (centres unmarked) [Compound 735, ethyl 2-{5-[(adamantan-1-ylmethyl)carbamoyl]imidazo[1,2-a]pyridin-2-yl}-3-pyridin-4-ylpropanoate] was under 2000 nM.
In the case of `CCOC(=O)C(Cc1ccccn1)c1cn2c(C(=O)NCC34CC5CC(CC(C5)C3)C4)cccc2n1` (centres unmarked) [Compound 736, ethyl 2-{5-[(adamantan-1-ylmethyl)carbamoyl]imidazo[1,2-a]pyridin-2-yl}-3-pyridin-2-ylpropanoate], the IC50 is under 2000 nM.
The value for `O=C(O)c1nnnn1Cc1cn2c(C(=O)NCC34CC5CC(CC(C5)C3)C4)cccc2n1` [Compound 737, 1-({5-[(adamantan-1-ylmethyl)carbamoyl]imidazo[1,2-a]pyridin-2-yl}methyl)-1H-tetrazole-5-carboxylic acid] was under 2000 nM; that for `CC(C)CC(CNC(=O)c1cccc2nc(CN3CC[C@@H](N)C3)cn12)C1CCCCC1` (some centres unmarked) [Compound 739, 2-[(3-aminopyrrolidin-1-yl)methyl]-N-(2-cyclohaxyl-4-methylpentyl)imidazo [1,2-a]pyridine-5-carboxamide] was under 2000 nM; that for `CN(C)C1CCCN(C(=O)Cc2cn3c(C(=O)NCC45CC6CC(CC(C6)C4)C5)cccc3n2)C1` (centres unmarked) [Compound 740, N-(adamantan-1-ylmethyl)-2-{2-[3-(dimethylamino)piperidin-1-yl]-2-oxoethyl}imidazo[1,2-a]pyridine-5-carboxamide] was under 2000 nM.
The value for `CC(COS(C)(=O)=O)c1cn2c(C(=O)NCC34CC5CC(CC(C5)C3)C4)cccc2n1` (centres unmarked) [Compound 741, 2-{5-[(adamantan-1-ylmethyl)carbamoyl]imidazo[1,2-a]pyridin-2-yl}propyl methanesulfonate] was under 2000 nM.
In the case of `CC(C)N[C@@H]1CCCN(C(=O)Cc2cn3c(C(=O)NCC45CC6CC(CC(C6)C4)C5)cccc3n2)C1` [Compound 742, N-(adamantan-1-ylmethyl)-2-{2-[(3R)-3-(isopropylamino)piperidin-1-yl]-2-oxoethyl}imidazo[1,2-a]pyridine-5-carboxamide], the concentration for half-maximal inhibition (IC50) was under 2000 nM.
The value for `CC(C)CC(CNC(=O)c1cccc2nc(CSCCN)cn12)c1cccnc1` (centres unmarked) [Compound 744, 2-{[(2-aminoethyl)thio]methyl}-N-(4-methyl-2-pyridin-3-ylpentyl)imidazo [1,2-a]pyridine-5-carboxamide] was under 2000 nM; that for `CC(C)N[C@@H]1CCCN(C(=O)c2cn3c(C(=O)NCC45CC6CC(CC(C6)C4)C5)cccc3n2)C1` [Compound 745, N-(adamantan-1-ylmethyl)-2-{[(3R)-3-(isopropylamino)piperidin-1-yl]carbonyl}imidazo[1,2-a]pyridine-5-carboxamide] was under 2000 nM; that for `CC(C)CC(CNC(=O)c1cccc2nc(C(=O)N3CC[C@@H](N)C3)cn12)c1cccnc1` (some centres unmarked) [Compound 746, 2-[(3-aminopyrrolidin-1-yl)carbonyl]-N-(4-methyl-2-pyridin-3-ylpentyl) imidazo[1,2-a]pyridine-5-carboxamide] was under 2000 nM.
The value for `O=C(NCC12CC3CC(CC(C3)C1)C2)c1cccc2nc(C(=O)N3CC[C@@H](NCCO)C3)cn12` [Compound 747, N-(adamantan-1-ylmethyl)-2-({3-[(2-hydroxyethyl)amino]pyrrolidin-1-yl}carbonyl)imidazo[1,2-a]pyridine-5-carboxamide] was under 2000 nM; that for `CC(CC#N)c1cn2c(C(=O)NCC34CC5CC(CC(C5)C3)C4)cccc2n1` (centres unmarked) [Compound 748, N-(adamantan-1-ylmethyl)-2-(2-cyano-1-methylethyl) imidazo[1,2-a]pyridine-5-carboxamide] was under 2000 nM; that for `CC(C(=O)N1CCC[C@@H](N)C1)c1cn2c(C(=O)NCC34CC5CC(CC(C5)C3)C4)cccc2n1` (some centres unmarked) [Compound 751, N-(adamantan-1-ylmethyl)-2-[2-(3-aminopiperidin-1-yl)-1-methyl-2-oxoethyl]imidazo [1,2-a]pyridine-5-carboxamide] was under 2000 nM.
The value for `CC(C(=O)N1CC[C@@H](N)C1)c1cn2c(C(=O)NCC34CC5CC(CC(C5)C3)C4)cccc2n1` (some centres unmarked) [Compound 752, N-(adamantan-1-ylmethyl)-2-[2-(3-aminopyrrolidin-1-yl)-1-methyl-2-oxoethyl]imidazo [1,2-a]pyridine-5-carboxamide] was under 2000 nM.
Consider `CN(C)[C@@H]1CCN(C(=O)CCc2cn3c(C(=O)NCC45CC6CC(CC(C6)C4)C5)cccc3n2)C1` [Compound 753, N-(adamantan-1-ylmethyl)-2-{3-[(3R)-3-(dimethylamino)pyrrolidin-1-yl]-3-oxopropyl}imidazo [1,2-a)pyridine-5-carboxamide], for which the IC50 is under 2000 nM.
The value for `CN(C)C1CCCN(C(=O)CCc2cn3c(C(=O)NCC45CC6CC(CC(C6)C4)C5)cccc3n2)C1` (centres unmarked) [Compound 754, N-(adamantan-1-ylmethyl)-2-{3-[3-(dimethylamino)piperidin-1-yl]-3-oxopropyl} imidazo[1,2-a] pyridine-5-carboxamide] was under 2000 nM; that for `O=C(NCC12CC3CC(CC(C3)C1)C2)c1cccc2nc(C(Cc3ccccc3)C(=O)O)cn12` (centres unmarked) [Compound 755, 2-{5-[(adamantan-1-ylmethyl)carbamoyl]imidazo[1,2-a]pyridin-2-yl}-3-phenylpropanoic acid] was under 2000 nM; that for `CCOC(=O)CCc1cn2c(C(=O)NCC34CC5CC(CC(C5)C3)C4)cccc2n1` [Compound 756, ethyl 3-{5-[(adamantan-1-ylmethyl)carbamoyl]imidazo[1,2-a]pyridin-2-yl}propanoate] was under 2000 nM.
